Experiments:
[1] = Solubility in organic solvents; type: physicochemical
Method: Before fabricating the FETs, the solubility of the two semiconductor compositions in tetrahydrofuran (THF) was determined.

[2] = Solubility in organic solvents; type: physicochemical; remark: listed apart in the source
[3] = Viscosity of formulation or solution; type: physicochemical; conditions: c = 500 ppm, cyclohexanol/THFA/THF = 86:9:5

SMILES | melting point [°C] | solubility in THF ([1]; THF) | further results
CC(CO)COc1ccc(-c2ccc(-c3ccc(-c4ccc(OCC(C)CO)cc4)s3)s2)cc1 (stereo not shown) [3(3OH,2Me)-O-PTTP-O-3(3OH,2Me), 3-(4-{5′-[4-(3-Hydroxy-2-methyl-propoxy)-phenyl]-[2,2′]bithiophenyl-5-yl}-phenoxy)-2-methyl-propan-1-ol] |  | Low solubility in THF(600 ppm) | 
CC(COc1ccc(-c2ccc(-c3ccc(-c4ccc(OCC(C)COC5CCCCO5)cc4)s3)s2)cc1)COC1CCCCO1 (stereo not shown) [3(3THPO,2Me)-O-PTTP-O-3(THPO,2Me), 5,5′-Bis-[4-(2-methyl-propoxy-tetrahydro-pyran)-phenoxy]-[2,2′]bithiophenyl] |  | Well soluble in THF(about 75,000 ppm) | 
CCCOCCc1ccc(-c2ccc(-c3ccc(-c4ccc(CCOCCC)cc4)s3)s2)cc1 [3O2PTTP2O3, 5,5′-Bis(4-(propxyethyl)phenyl)-2,2′-bithiophene] |  |  | solubility (in words) ([1]; compared with 6PTTP6): Solubility like6PTTP6
CCC(CC)COc1ccc(-c2ccc(-c3ccc(-c4ccc(OCC(CC)CC)cc4)s3)s2)cc1 [4(2Et)-O-PTTP-O-4(2Et), 5,5′-bis(4-(2-ethylbutyloxy)phenyl)-2,2′-bithiophene] |  | solubility in THF about4,900 ppm | 
CC(C)CCCOc1ccc(-c2ccc(-c3ccc(-c4ccc(OCCCC(C)C)cc4)s3)s2)cc1 [5(4Me)-O-PTTP-O-5(4Me), 5,5′-bis(4-(4-methylpentyloxy)phenyl)-2,2′-bithiophene] | 250 | solubility in THF about5400 ppm. DSC: mp =250° C., smaller transitionaround 173 °C (couldbe LC) | 
CCCCCC(CC)Oc1ccc(-c2ccc(-c3ccc(-c4ccc(OC(CC)CCCCC)cc4)s3)s2)cc1 (stereo not shown) [6(1Et)-O-PTTP-O-6(1Et), 5,5′-Bis-[4-(1-ethyl-hexyloxy)-phenyl]-[2,2′]bithiophenyl] | 97 to 102 | Well soluble in THF(about 330,000 ppm)DSC: mp = 97-102° C.,(broad transition) | 
CCCCCC(C)Oc1ccc(-c2ccc(-c3ccc(-c4ccc(OC(C)CCCCC)cc4)s3)s2)cc1 (stereo not shown) [6(1Me)-O-PTTP-O-6(1Me), 5,5′bis(4-(1-methylhexyloxy)phenyl)-2,2′-bithiophene] | 143 |  | solubility in THF relative to 7(2Me)-PTTP-7(2Me) ([1]; THF): approximately twice; solubility in 2-Ethylhexanol ([2]; 2-Ethylhexanol): ~800 ppm; solubility in THF/cyclohexanol 2:8 ([2]; THF/cyclohexanol 2:8 (viscosity 9 mPas)): 4,000 ppm; solubility in o-xylene [2]: 54,000 ppm
CC(C)(C)[Si](OCCCCCCOc1ccc(-c2ccc(-c3ccc(-c4ccc(OCCCCCCO[Si](c5ccccc5)(c5ccccc5)C(C)(C)C)cc4)s3)s2)cc1)(c1ccccc1)c1ccccc1 [6(6TBDPSO)-O-PTTP-O-6(6TBDPSO), 5,5′-Bis-{4-[6-(tert-butyl-diphenyl-silanyloxy)-hexyloxy]-phenyl}-[2,2′]bithiophenyl] |  | Well soluble in THF(about 310,000 ppm); | 
C=CC(C=C)OC(=O)CCCCCOc1ccc(-c2ccc(-c3ccc(-c4ccc(OCCCCCC(=O)OC(C=C)C=C)cc4)s3)s2)cc1 [6-[4-(5′-[5-(1-Vinyl-allyloxycarbonyl)-pentyloxy]-phenyl}-[2,2′]bithiophenyl-5-yl)-phenoxy]-hexanoic acid 1-vinyl-allyl ester] |  | well soluble in THF(131,000 ppm) | 

The next lines start with results.

melting point [°C] | SMILES | solubility in THF ([1]; THF) | further results
148 | CCCCC(CC)COc1ccc(-c2ccc(-c3ccc(-c4ccc(OCC(CC)CCCC)cc4)s3)s2)cc1 (stereo not shown) [6(2Et)-O-PTTP-O-6(2Et), 5,5′-bis(4-(2-ethylhexyloxy)phenyl)-2,2′-bithiophene] | ~70,000 ppm | viscosity η of formulation [3]: 22 mPas; solubility in o-xylene [2]: ~25,000 ppm
197 | CCCCC(C)COc1ccc(-c2ccc(-c3ccc(-c4ccc(OCC(C)CCCC)cc4)s3)s2)cc1 (stereo not shown) [6(2Me)-O-PTTP-O-6(2Me), 5,5′-bis(4-(2-methylhexyloxy)phenyl)-2,2′-bithiophene] | sufficiently soluble in THF(about 61,000 ppm)DSC: mp = 197 °C | 
243 | CCCCCCOc1ccc(-c2ccc(-c3ccc(-c4ccc(OCCCCCC)cc4)s3)s2)cc1 [6-O-PTTP-O-6, 5,5′-bis(4-hexyloxyphenyl)-2,2′-bithiophene] | solubility in THF about600 ppm, lowest value byfar. Differential scanningcalorimetry (“DSC”);melting point = 243° C.,smaller transitions at 65,148, 176, 255, 261° C.(doastereomers or LC) | 
192 | CC(C)CCCC(C)CCOc1ccc(-c2ccc(-c3ccc(-c4ccc(OCCC(C)CCCC(C)C)cc4)s3)s2)cc1 (stereo not shown) [8(3,7Me)-O-PTTP-O-8(3,7Me), 5,5′-bis(4-(3,7-dimethyloctyloxy)phenyl)-2,2′-bithiophene] | solubility in THF about12,000 ppmDCS: mp = 192° C., smallertransition at 143° C.(diastereomer or LC) | 
